How the values were obtained:
Assay type in all cases: physicochemical
[1] = Example 3: solubility of sertaconazole nitrate in mixtures of solvent and solubilizer
Experimental: Mixtures of 2 wt.-% sertaconazole nitrate and 98 wt.-% of a mixture of solvent and solubilizers (the amount of solubilizer with respect to the total mixture of sertaconazole nitrate, solvent and solubilizer is indicated in the subsequent table) were prepared and shaken for 24 h at 150 rpm and at room temperature. Subsequently, the samples were macroscopically examined by evaluating the amount and appearance of the sediment.

[2] = Example 2: solubility of sertaconazole nitrate in solubilizers, macroscopic
Experimental: Mixtures of 2 wt.-% sertaconazole nitrate and 98 wt.-% of solubilizers were prepared and shaken for 24 h at 150 rpm and at room temperature. Subsequently, the samples were macroscopically examined by evaluating the amount and appearance of the sediment.

[3] = Example 1: solubility of sertaconazole nitrate in solvents, macroscopic
Experimental: Mixtures of 2 wt.-% sertaconazole nitrate and 98 wt.-% of solvents were prepared and shaken for 24 h at 150 rpm and at room temperature. Subsequently, the samples were macroscopically examined by evaluating the amount and appearance of the sediment.

## Clc1ccc(C(Cn2ccnc2)OCc2csc3c(Cl)cccc23)c(Cl)c1 (centres unmarked) [sertaconazole nitrate]
[1]; Butyl acetate + Macrogol 400 10-30 wt.-%
  amount and appearance of the sediment: Sediment, no change observed by increasing amount of macrogol 400
[1]; Butyl acetate + Polyglycol M350 10-30 wt.-%
  amount and appearance of the sediment: White powdery sediment, no change observed by increas-ing amount of polyglycol M350
[1]; Butyl acetate + Propylene glycol 10-30 wt.-%
  amount and appearance of the sediment: Clear decrease of sediment with increase of propylene gly-col
[1]; Butyl acetate + Transcutol 10-30 wt.-%
  amount and appearance of the sediment: Sediment, no change observed by increasing amount of transcutol
[1]; Butyl acetate + Water 10-30 wt.-%
  amount and appearance of the sediment: Sediment (partially powdery white), increase of sediment with increasing amount of water
[1]; Ethanol + Dimethylphthalate 10-30 wt.-%
  amount and appearance of the sediment: Sediment (slightly crystalline), minimal decrease of sedi-ment with increasing of amount of dimethylphthalate
[1]; Ethanol + Macrogol 400 10 wt.-%
  amount and appearance of the sediment: Minimal crystal-line sediment
[1]; Ethanol + Macrogol 400 20 wt.-%
  amount and appearance of the sediment: clear
[1]; Ethanol + Macrogol 400 30 wt.-%
  amount and appearance of the sediment: clear
[1]; Ethanol + Polyglycol M350 10 wt.-%
  amount and appearance of the sediment: Minimal crystal-line sediment
[1]; Ethanol + Polyglycol M350 20 wt.-%
  amount and appearance of the sediment: clear
[1]; Ethanol + Polyglycol M350 30 wt.-%
  amount and appearance of the sediment: clear
[1]; Ethanol + Propylene glycol 10-30 wt.-%
  amount and appearance of the sediment: Minimal crystalline sediment, decrease of sediment with increase of amount of propylene glycol
[1]; Ethanol + Transcutol 10-30 wt.-%
  amount and appearance of the sediment: Minimal crystalline sediment, decrease of sediment with increase of amount of transcutol
[1]; Ethanol + Water 10-30 wt.-%
  amount and appearance of the sediment: Sediment (powdery/crystalline), no change observed by in-creasing amount of water
[1]; Ethyl acetate + Dimethylphthalate 10-30 wt.-%
  amount and appearance of the sediment: Crystalline sediment, better solubility than pure ethyl ace-tate
[1]; Ethyl acetate + Macrogol 400 10-30 wt.-%
  amount and appearance of the sediment: Crystalline sediment, minimal decrease of sediment with increase of amount of macrogol 400
[1]; Ethyl acetate + Polyglycol M350 10-30 wt.-%
  amount and appearance of the sediment: White, powdery sediment, no change observed by in-crease of amount of polyglycol M350
[1]; Ethyl acetate + Propylene glycol 10-20 wt.-%
  amount and appearance of the sediment: Decrease of crystalline sediment with increase of amount of propylene gly-col
[1]; Ethyl acetate + Propylene glycol 30 wt.-%
  amount and appearance of the sediment: Clear
[1]; Ethyl acetate + Transcutol 10-30 wt.-%
  amount and appearance of the sediment: Powdery/crystalline sediment, no change observed by in-crease of amount of transcutol
[1]; Ethyl acetate + Water 10-30 wt.-%
  amount and appearance of the sediment: Sediment (partially powdery white), increase of sediment with increasing amount of water
[1]; Isopropanol + Macrogol 400 10-30 wt.-%
  amount and appearance of the sediment: Crystalline sediment, no change observed by increasing amount of macrogol 400
[1]; Isopropanol + Polyglycol M350 10-30 wt.-%
  amount and appearance of the sediment: White sediment, clear decrease of sediment with increas-ing amount of polyglycol M350
[1]; Isopropanol + Propylene glycol 10-30 wt.-%
  amount and appearance of the sediment: Crystalline sediment, no change observed by increasing amount of propylene glycol
[1]; Isopropanol + Transcutol 10-30 wt.-%
  amount and appearance of the sediment: Crystalline sediment, no change observed by increasing amount of transcutol
[1]; Isopropanol + Water 10-30 wt.-%
  amount and appearance of the sediment: White powdery sediment, no change observed by increas-ing amount of water
[2]; 2 wt.-% in 98 wt.-% solubilizer, 24 h, room temperature, trend from dimethylphthalate to macrogol 400
  solubility: Increasing from dimethylphthalate to macrogol 400
[2]; Dimethylphthalate
  appearance: Milky mixture with sediment
[2]; Glycerine (cell below, Marcogol 300, empty, possibly merged)
  appearance: Clear solution with sediment
[2]; Polyglycol M350 (cells below, propylene glycol, transcutol, macrogol 400, empty, possibly merged)
  appearance: Dissolved
[3]; 2 wt.-% in 98 wt.-% solvent, 24 h, room temperature, trend over water, butyl acetate, ethyl acetate, isopropanol, ethanol
  solubility: Increasing from water to ethanol
[3]; Ethanol
  appearance: Low, crystalline sediment
[3]; Water
  appearance: Not dissolved, powdery, white sediment
[3]; trend over water, butyl acetate, ethyl acetate, isopropanol, ethanol
  sediment: Decreasing from water to etanol
